Results as given in patent US10196386B2, “Compounds having muscarinic receptor antagonist and beta2 adrenergic receptor agonist activity” (priority 2016, dated 2019).

What was measured:
Human M3 receptor = target: T1, Human M3 receptor (Homo sapiens, UniProt P20309); assay: biochemical; assay type: binding; conditions: read-out: M3 Range
T1 construct: purchased Perkin Elmer

Human β2 adrenoceptor = target: T2, Human β2 adrenoceptor (Homo sapiens, UniProt P07550); assay: β2 adrenoceptor radioligand binding assay
T2 construct: purchased Perkin Elmer
Summary of the method: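 Human β2 receptor membranes incubated 1 h at room temperature with 0.3 nM [125I]cyanopindolol and compound in pH 7.4 HEPES buffer (0.5% DMSO); 2 μM s-propranolol defined non-specific binding. Bound label counted after filtration; IC50 from competition curves, converted to Ki via Cheng–Prusoff.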

T1 sequence (P20309 whole entry): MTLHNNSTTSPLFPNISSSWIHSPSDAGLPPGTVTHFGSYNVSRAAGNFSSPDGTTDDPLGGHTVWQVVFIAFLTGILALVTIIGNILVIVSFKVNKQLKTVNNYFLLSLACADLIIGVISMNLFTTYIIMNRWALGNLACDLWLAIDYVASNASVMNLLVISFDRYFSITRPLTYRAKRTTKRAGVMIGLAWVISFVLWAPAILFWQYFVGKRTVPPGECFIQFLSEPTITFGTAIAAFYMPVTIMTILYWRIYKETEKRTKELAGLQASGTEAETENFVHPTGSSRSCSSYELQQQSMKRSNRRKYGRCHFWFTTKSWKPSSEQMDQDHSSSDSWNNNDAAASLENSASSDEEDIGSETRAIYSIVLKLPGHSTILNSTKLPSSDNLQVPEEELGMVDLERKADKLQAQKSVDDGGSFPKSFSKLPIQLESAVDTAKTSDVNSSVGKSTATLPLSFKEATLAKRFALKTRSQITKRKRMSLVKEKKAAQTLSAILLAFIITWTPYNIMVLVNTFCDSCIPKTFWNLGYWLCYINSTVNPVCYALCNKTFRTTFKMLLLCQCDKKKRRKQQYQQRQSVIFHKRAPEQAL
T2 sequence (P07550 whole entry): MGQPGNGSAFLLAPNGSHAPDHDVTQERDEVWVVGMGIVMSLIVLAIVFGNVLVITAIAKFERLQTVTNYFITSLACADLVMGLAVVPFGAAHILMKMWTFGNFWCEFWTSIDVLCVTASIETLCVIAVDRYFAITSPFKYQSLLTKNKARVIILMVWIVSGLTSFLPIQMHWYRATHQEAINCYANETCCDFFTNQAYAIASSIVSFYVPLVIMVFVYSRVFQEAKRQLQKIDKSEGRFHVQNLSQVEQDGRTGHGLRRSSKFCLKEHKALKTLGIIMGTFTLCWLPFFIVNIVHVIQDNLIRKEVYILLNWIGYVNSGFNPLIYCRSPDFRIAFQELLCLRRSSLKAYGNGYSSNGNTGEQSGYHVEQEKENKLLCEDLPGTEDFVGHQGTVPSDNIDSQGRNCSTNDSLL

SMILES: C[C@H](NC(=O)c1ccc(CNC[C@H](O)c2ccc(O)c3[nH]c(=O)ccc23)cc1)C(=O)N1CC=C(c2cccc([C@](O)(C(=O)OCC3CCN(Cc4ccccc4)CC3)c3ccccc3)c2)CC1 [Compound 8C, (1-Benzylpiperidin-4-yl)methyl (S)-2-hydroxy-2-(3-(1-((4-((((R)-2-hydroxy-2-(8-hydroxy-2-oxo-1,2-dihydroquinolin-5-yl)ethyl)amino)methyl)benzoyl)-L-alanyl)-1,2,3,6-tetrahydropyridin-4-yl)phenyl)-2-phenylacetate]
- IC50 (Human M3 receptor): 0.3 to 3 nM
- IC50 (Human β2 adrenoceptor): 0.3 to 3 nM

SMILES: O=C(NCc1ccc(-c2cccc([C@](O)(C(=O)OCC3CCN(Cc4ccccc4)CC3)c3ccccc3)c2)s1)c1ccc(CNC[C@H](O)c2ccc(O)c3[nH]c(=O)ccc23)s1 [Compound 1T, (1-Benzylpiperidin-4-yl)methyl (S)-2-hydroxy-2-(3-(5-((5-((((R)-2-hydroxy-2-(8-hydroxy-2-oxo-1,2-dihydroquinolin-5-yl)ethyl)amino)methyl)thiophene-2-carboxamido)methyl)thiophen-2-yl)phenyl)-2-phenylacetate]
- IC50 (Human M3 receptor): 0.3 to 3 nM
- IC50 (Human β2 adrenoceptor): 0.3 to 3 nM

SMILES: COc1cc(CNC[C@H](O)c2ccc(O)c3[nH]c(=O)ccc23)ccc1C(=O)NCc1ccc(-c2cccc([C@](O)(C(=O)OCC3CCN(Cc4ccccc4)CC3)c3ccccc3)c2)s1 [Compound 1C, (1-Benzylpiperidin-4-yl)methyl (S)-2-hydroxy-2-(3-(5-((4-((((R)-2-hydroxy-2-(8-hydroxy-2-oxo-1,2-dihydroquinolin-5-yl)ethyl)amino)methyl)-2-methoxybenzamido)methyl)thiophen-2-yl)phenyl)-2-phenylacetate]
- IC50 (Human M3 receptor): 0.3 to 3 nM
- IC50 (Human β2 adrenoceptor): 0.3 to 3 nM

SMILES: O=C(NCc1ccc(-c2cccc([C@](O)(C(=O)OCC3CCN(Cc4ccccc4)CC3)c3ccccc3)c2)s1)c1cc(F)c(CNC[C@H](O)c2ccc(O)c3[nH]c(=O)ccc23)cc1F [Compound 1U, (1-Benzylpiperidin-4-yl)methyl (S)-2-(3-(5-((2,5-difluoro-4-((((R)-2-hydroxy-2-(8-hydroxy-2-oxo-1,2-dihydroquinolin-5-yl)ethyl)amino)methyl)-benzamido)methyl)thiophen-2-yl)phenyl)-2-hydroxy-2-phenylacetate]
- IC50 (Human M3 receptor): 0.3 to 3 nM
- IC50 (Human β2 adrenoceptor): < 0.3 nM

SMILES: COc1ccc(CN2CCC(COC(=O)[C@](O)(c3ccccc3)c3cccc(-c4ccc(CNC(=O)c5ccc(CNC[C@H](O)c6ccc(O)c7[nH]c(=O)ccc67)cc5)s4)c3)CC2)cc1 [Compound 2A, (1-(4-Methoxybenzyl)piperidin-4-yl)methyl (S)-2-hydroxy-2-(3-(5-((4-((((R)-2-hydroxy-2-(8-hydroxy-2-oxo-1,2-dihydroquinolin-5-yl)ethyl)amino)-methyl)benzamido)methyl)thiophen-2-yl)phenyl)-2-phenylacetate]
- IC50 (Human M3 receptor): 0.3 to 3 nM
- IC50 (Human β2 adrenoceptor): < 0.3 nM

SMILES: COc1cc(C(=O)NCc2ccc(-c3cccc([C@](O)(C(=O)OCC4(C)CCN(Cc5ccccc5)CC4)c4ccccc4)c3)s2)c(Cl)cc1CNC[C@H](O)c1ccc(O)c2[nH]c(=O)ccc12 [Compound 11, (1-Benzyl-4-methylpiperidin-4-yl)methyl (S)-2-(3-(5-((2-chloro-4-((((R)-2-hydroxy-2-(8-hydroxy-2-oxo-1,2-dihydroquinolin-5-yl)ethyl)amino)methyl)-5-methoxybenzamido)methyl)thiophen-2-yl)phenyl)-2-hydroxy-2-phenylacetate]
- IC50 (Human M3 receptor): 0.3 to 3 nM
- IC50 (Human β2 adrenoceptor): < 0.3 nM

SMILES: COc1cc(C(=O)NCc2ccc(-c3cccc([C@](O)(C(=O)OCC4CCN(Cc5ccccc5)CC4)c4ccccc4)c3)s2)cc(F)c1CNC[C@H](O)c1ccc(O)c2[nH]c(=O)ccc12 [Compound 1M, (1-Benzylpiperidin-4-yl)methyl (S)-2-(3-(5-((3-fluoro-4-((((R)-2-hydroxy-2-(8-hydroxy-2-oxo-1,2-dihydroquinolin-5-yl)ethyl)amino)methyl)-5-methoxybenzamido)methyl)thiophen-2-yl)phenyl)-2-hydroxy-2-phenylacetate]
- IC50 (Human M3 receptor): 0.3 to 3 nM
- IC50 (Human β2 adrenoceptor): 0.3 to 3 nM

SMILES: O=C(NCc1ccc(-c2cccc([C@](O)(C(=O)OCC3CCN(Cc4ccccc4)CC3)c3ccccc3)c2)s1)c1ccc(CNC[C@H](O)c2ccc(O)c3[nH]c(=O)ccc23)c(C(F)(F)F)c1 [Compound 1F, (1-Benzylpiperidin-4-yl)methyl (S)-2-hydroxy-2-(3-(5-((4-((((R)-2-hydroxy-2-(8-hydroxy-2-oxo-1,2-dihydroquinolin-5-yl)ethyl)amino)methyl)-3-(trifluoromethyl)benzamido)methyl)thiophen-2-yl)phenyl)-2-phenylacetate]
- IC50 (Human M3 receptor): > 3 nM
- IC50 (Human β2 adrenoceptor): 0.3 to 3 nM

SMILES: O=C(c1ccc(CNC[C@H](O)c2ccc(O)c3[nH]c(=O)ccc23)cc1)N1CC=C(c2cccc([C@](O)(C(=O)OCC3CCN(Cc4ccccc4)CC3)c3ccccc3)c2)C1 [Compound 3G, (1-Benzylpiperidin-4-yl)methyl (S)-2-hydroxy-2-(3-(1-(4-((((R)-2-hydroxy-2-(8-hydroxy-2-oxo-1,2-dihydroquinolin-5-yl)ethyl)amino)methyl)benzoyl)-2,5-dihydro-1H-pyrrol-3-yl)phenyl)-2-phenylacetate]
- IC50 (Human M3 receptor): 0.3 to 3 nM
- IC50 (Human β2 adrenoceptor): < 0.3 nM

SMILES: O=C(c1cncc(-c2cccc([C@](O)(C(=O)OCC3CCN(Cc4ccccc4)CC3)c3ccccc3)c2)n1)N1CCC(CNC[C@H](O)c2ccc(O)c3[nH]c(=O)ccc23)CC1 [Compound 6A, (1-Benzylpiperidin-4-yl)methyl (S)-2-hydroxy-2-(3-(6-(4-((((R)-2-hydroxy-2-(8-hydroxy-2-oxo-1,2-dihydroquinolin-5-yl)ethyl)amino)methyl)piperidine-1-carbonyl)pyrazin-2-yl)phenyl)-2-phenylacetate]
- IC50 (Human M3 receptor): 0.3 to 3 nM
- IC50 (Human β2 adrenoceptor): 0.3 to 3 nM
